Earlier results in US20100136106A1, “Modified Release Famciclovir Compositions” (priority 2005, published 2010).
Like-named read-outs stand apart in the source and are kept apart here.

Experiments:
[1] = for metabolite, % of the dose in the urine: in vivo, po
[2] = not given; remark: listed apart in the source
[3] = not given; remark: listed apart in the source
[4] = for solubility in water: 25° C.
[5] = below 85% relative humidity
[6] = single 500 mg oral dose of radiolabeled famciclovir
cytochrome P450 = settings: human liver microsomes
[7] = for AUC(0-∞) / Cmax / Tmax: healthy male volunteers
[8] = 5 mg/kg radiolabeled penciclovir, 1-hour infusion
[9] = intravenous penciclovir
[10] = 500 mg famciclovir t.i.d. for 7 days
viral DNA polymerase = settings: competitively with deoxyguanine triphosphate
[11] = 500 mg famciclovir single oral dose, patients with herpes zoster

## CC(=O)OCC(CO)CCn1cnc2cnc(N)nc21 (stereo not drawn) [6-deoxy monoacetylated penciclovir]
[1]
  metabolite, % of the dose in the urine: < 0.5%

## Nc1ncc2ncn(CCC(CO)CO)c2n1 [6-deoxy penciclovir]
[1]
  metabolite, % of the dose in the urine: 5%

## CC(=O)OCC(CCn1cnc2cnc(N)nc21)COC(C)=O [famciclovir, 2-[2-(2-amino-9H-purin-9-yl)ethyl]-1,3-propanediol diacetate]
[11]
  AUC (mean±SD): 12100 ± 1700 ng·h/mL
  Cmax (mean±SD): 4000 ± 700 ng/mL
  Tmax (mean±SD): 42 ± 12 min
[2]; given 2 hours after a meal compared to 2 hours before a meal
  decrease in Cmax: 18%
[2]; regular doses
  effect of food on absorption: does not affect the extent of absorption
[3]; octanol/phosphate buffer (pH 7.4)
  partition coefficient P: 2.08
[3]; octanol/water (pH 4.8)
  partition coefficient P: 1.09
[4]
  solubility in acetone: freely soluble
  solubility in ethanol: sparingly soluble
  solubility in isopropanol: sparingly soluble
  solubility in methanol: freely soluble
[4]; initially
  solubility in water: > 25 % w/v
[1]; oral administration of famciclovir
  famciclovir detected in plasma or urine: Little or no
[5]
  hygroscopicity: not hygroscopic
[6]; first 6 hours
  administered radiolabeled dose collected in urine: Approximately 60%
[6]; over 72 hours
  administered radioactivity recovered in feces: 27%
  administered radioactivity recovered in urine: 73%
Cytochrome P450
  role of cytochrome P450 in famciclovir metabolism: does not play an important role
[7]; 125 mg single oral dose
  AUC(0-∞): 2240 ng·h/mL
  Cmax: 800 ng/mL
  Tmax: 54 min
[7]; 250 mg single oral dose
  AUC(0-∞): 4480 ng·h/mL
  Cmax: 1600 ng/mL
  Tmax: 54 min
[7]; 500 mg single oral dose
  AUC(0-∞): 8950 ng·h/mL
  Cmax: 3300 ng/mL
  Tmax: 54 min

## CC(=O)OCC(CO)CCn1cnc2c(=O)[nH]c(N)nc21 (stereo not drawn) [monoacetylated penciclovir]
[1]
  metabolite, % of the dose in the urine: < 0.5%

## CC(=O)OCC(CCn1cnc2cnc(N)nc21)COC(C)=O [monohydrate]
[4]; monohydrate that precipitates
  solubility in water: 2-3 % w/v

## Nc1nc2c(ncn2CCC(CO)CO)c(=O)[nH]1 [penciclovir]
500 mg famciclovir oral
  AUC of penciclovir greater in patients with herpes zoster as compared to healthy volunteers: approximately 35%
Seven patients with herpes zoster
  half-life: 180 ± 66 min
[8]
  share of the radioactivity excreted in the urine: 91%
[8]; first 6 hours
  dose excreted in urine: 83%
[8]; over 24 hours
  administered radioactivity recovered in urine: Approximately 94%
[2]; capsule formulation of famciclovir with food (approximately 910 Kcal and 26% fat)
  decrease of penciclovir Cmax with food: approximately 50%
[9]
  renal clearance as share of total plasma clearance: 74.5±8.8%
[6]
  share of the radioactivity excreted in the urine: 82%
[7]; famciclovir dose range of 125 mg to 750 mg, single dose
  dose proportionality of penciclovir concentrations: increased in proportion to dose
[10]
  accumulation of penciclovir: no accumulation

## penciclovir triphosphate
Viral DNA polymerase
  inhibition of viral DNA polymerase: inhibit viral DNA polymerase competitively
